The results in this text go back to article PMC12442245, “Activity Analysis of the P2X Receptor Antagonist PPADS against Signal Transducer and Activator of Transcription Proteins” (Chembiochem, 2025).

One test concerns the target T1, STAT1 (Homo sapiens, UniProt P42224).
T1 sequence (P42224 1-750): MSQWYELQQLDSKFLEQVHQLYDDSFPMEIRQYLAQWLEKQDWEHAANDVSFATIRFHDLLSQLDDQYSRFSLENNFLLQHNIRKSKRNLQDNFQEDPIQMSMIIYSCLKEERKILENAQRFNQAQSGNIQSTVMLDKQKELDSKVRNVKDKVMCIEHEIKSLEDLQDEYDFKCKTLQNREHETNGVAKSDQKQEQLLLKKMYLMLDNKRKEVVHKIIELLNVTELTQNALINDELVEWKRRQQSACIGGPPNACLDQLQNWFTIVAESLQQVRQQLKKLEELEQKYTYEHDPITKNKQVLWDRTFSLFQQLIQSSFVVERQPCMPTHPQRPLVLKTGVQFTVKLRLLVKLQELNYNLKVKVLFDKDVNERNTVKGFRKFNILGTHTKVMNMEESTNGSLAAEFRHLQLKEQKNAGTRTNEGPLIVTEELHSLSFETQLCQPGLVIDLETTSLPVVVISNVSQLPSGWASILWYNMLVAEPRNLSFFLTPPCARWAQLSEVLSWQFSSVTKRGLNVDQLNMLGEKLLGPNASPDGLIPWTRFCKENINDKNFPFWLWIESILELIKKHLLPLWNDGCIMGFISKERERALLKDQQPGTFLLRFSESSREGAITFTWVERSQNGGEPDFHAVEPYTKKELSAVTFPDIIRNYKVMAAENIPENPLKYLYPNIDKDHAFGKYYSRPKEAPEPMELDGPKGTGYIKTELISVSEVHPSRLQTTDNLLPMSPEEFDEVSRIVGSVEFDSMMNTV
Kind of test: Competitive fluorescence polarization (FP) assay, STAT1. The class given is binding. An excerpt:
Screening of chemical libraries
Screening of chemical libraries comprising approximately 5000 known bioactive compounds in fluorescence polarization-based assays against phosphorylation-dependent protein-protein interaction domains, including STAT proteins, has been described.[1] PPADS was purchased from Sigma-Aldrich, and iso-PPADS from Bio-Techne.
(§1) Fluorescence polarization assays
(§2) Competitive fluorescence polarization (FP) assays for STAT1,[2] STAT3,[3] STAT4,[4] STAT5a,[5] STAT5b[6] and STAT6[1] were performed as previously described. Briefly, peptide binding to proteins was analyzed using the following carboxyfluorescein (CF) -labelled pepti des at a concentration of 10 nM: STAT1: 5-CF-GpYDKPHVL-OH, STAT3: 5-CF-GpYLPQTV -NH2, STAT4: 5-CF-GpYLPQNID-OH, STAT5a and STAT5b: 5-CF-GpYLVLDKW-OH, STAT6: 5- […]
CFGp[…]-OH. Proteins were used at a final concentration representing the approximate Kd value for binding of the corresponding peptide to the protein, namely 65 nM for STAT1, 65 nM for STAT3, 35 nM for STAT4, 125 nM for STAT5a, 65 nM for STAT5b and 75 nM for STAT6. Assays were carried out in buffer containing 10 mM Tris/HCl, 50 mM NaCl, 1 mM EDTA, 0.1% NP-40 substitute and 2% DMSO, with 1 mM reducing agent where applicable, at pH 8.0. […] FP was measured using an Infinite F500 plate reader (Tecan) and measurements were converted into percent inhibition according to […]
For orientation: Polarisation of emitted light reports the rotation of a fluorescent probe.

The target in a further test is T2, STAT4 (Homo sapiens, UniProt Q14765).
T2 sequence (Q14765 1-748): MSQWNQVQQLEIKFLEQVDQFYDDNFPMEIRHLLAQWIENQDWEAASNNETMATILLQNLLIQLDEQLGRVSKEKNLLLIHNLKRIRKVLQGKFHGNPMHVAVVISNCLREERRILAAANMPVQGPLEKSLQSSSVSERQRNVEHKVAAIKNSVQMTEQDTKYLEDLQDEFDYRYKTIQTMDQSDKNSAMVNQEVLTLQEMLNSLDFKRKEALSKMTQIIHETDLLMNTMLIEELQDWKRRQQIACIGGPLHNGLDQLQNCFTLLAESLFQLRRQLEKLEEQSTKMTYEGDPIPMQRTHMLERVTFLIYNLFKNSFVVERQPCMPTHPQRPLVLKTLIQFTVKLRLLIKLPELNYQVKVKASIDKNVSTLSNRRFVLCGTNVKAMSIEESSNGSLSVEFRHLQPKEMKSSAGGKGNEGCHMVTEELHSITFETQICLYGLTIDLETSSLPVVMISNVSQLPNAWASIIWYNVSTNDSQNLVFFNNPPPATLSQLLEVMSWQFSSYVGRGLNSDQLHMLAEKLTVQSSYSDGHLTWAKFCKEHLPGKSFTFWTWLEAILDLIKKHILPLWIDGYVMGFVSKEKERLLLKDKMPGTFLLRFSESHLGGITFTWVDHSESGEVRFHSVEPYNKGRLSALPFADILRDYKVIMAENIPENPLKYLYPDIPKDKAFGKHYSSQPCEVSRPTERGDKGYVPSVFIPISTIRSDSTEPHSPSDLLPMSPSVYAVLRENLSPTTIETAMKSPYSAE
As to the kind of experiment: Competitive fluorescence polarization (FP) assay, STAT4. It is filed as binding. As to the method: Screening of chemical libraries […]
PPADS was purchased […]
from Sigma-Aldrich, and iso-PPADS from Bio-Techne.
as §1, §2
CFGp[…]-OH. Proteins were used at a final concentration representing the approximate Kd value for binding of the corresponding peptide to the protein, namely 65 nM for STAT1, 65 nM for STAT3, 35 nM for STAT4, 125 nM for STAT5a, 65 nM for STAT5b and 75 nM for STAT6. Assays were carried out in buffer containing 10 mM Tris/HCl, 50 mM NaCl, 1 mM EDTA, 0.1% NP-40 substitute and 2% DMSO, with 1 mM reducing agent where […]
applicable, at pH 8.0. […]
before adding peptide and incubating for a further 1 h. FP was measured using an Infinite F500 plate reader (Tecan) and measurements were converted into percent inhibition according to […]

[1] abbreviates: no reducing agent, 1 h, read-out: IC50 STAT4 (FP assay).

Where two headings read alike, the source gives them in different places.

For the compound `Cc1nc(/N=N/c2ccc(S(=O)(=O)O)cc2S(=O)(=O)O)c(COP(=O)(O)O)c(C=O)c1O` [PPADS, pyridoxalphosphate‐6‐azophenyl‐2',4'‐disulfonic acid], the half-inhibitory concentration (IC50) (commonly the point on the concentration scale where inhibition reaches its midpoint) at STAT1 (no reducing agent, 1 h) came out at 87400 ± 6600 nM; on STAT4 (IC50 STAT4 (FP assay), 1 mM DTT, 1 hr), 1700 ± 300 nM; at STAT4 (IC50 STAT4 (FP assay), 1 mM DTT, 2 hr) it was 2500 ± 400 nM; at STAT4 (IC50 STAT4 (FP assay), 1 mM DTT, 3 hr), 3700 ± 600 nM; on STAT4 (IC50 STAT4 (FP assay), 1 mM DTT, 4 hr) it was 4900 ± 900 nM; on STAT4 (IC50 STAT4 (FP assay), 1 mM TCEP, 1 hr) it was 2400 ± 300 nM. Moreover, the half-inhibitory concentration (IC50) on STAT4 (IC50 STAT4 (FP assay), 1 mM TCEP, 2 hr) was found to be 2400 ± 200 nM; on STAT4 (IC50 STAT4 (FP assay), 1 mM TCEP, 3 hr), 2500 ± 400 nM; at STAT4 (IC50 STAT4 (FP assay), 1 mM TCEP, 4 hr), 2800 ± 500 nM; on STAT4 (setting [1]), 2200 ± 200 nM; on STAT4 (no reducing agent, 2 hr, read-out: IC50 STAT4 (FP assay), no reducing agent), 2400 ± 300 nM; at STAT4 (no reducing agent, 3 hr, read-out: IC50 STAT4 (FP assay), no reducing agent) it was 2600 ± 300 nM. For the same compound, the IC50 at STAT4 (no reducing agent, 4 hr, read-out: IC50 STAT4 (FP assay), no reducing agent) came to 2400 ± 100 nM.
For `Cc1nc(/N=N/c2cc(S(=O)(=O)O)ccc2S(=O)(=O)O)c(COP(=O)(O)O)c(C=O)c1O` [iso‐PPADS], at 100 µM the inhibition at STAT1 (at 100 μM, the highest concentration tested) was 41 ± 0.4%. Moreover, the IC50 at STAT4 (setting [1]) came out at 1900 ± 200 nM.
